Laboratory results taken from PubChem BioAssay (NCI).
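1) Cells in 96-well plates. 2) Compound, 48 h, 5 concentrations. 3) Linear interpolation between surrounding doses. 4) Unreached endpoint = highest concentration. GI50 is the concentration that inhibits growth by half. TGI: concentration producing complete growth inhibition.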

Assays:
Test in all cases: NCI tumour cell line growth inhibition, 48 h
OVCAR-3 ovarian = tested on: OVCAR-3 ovarian
OVCAR-4 ovarian = tested on: OVCAR-4 ovarian
HS 578T breast = tested on: HS 578T breast
CAKI-1 renal = tested on: CAKI-1 renal
UACC-257 melanoma = tested on: UACC-257 melanoma
CCRF-CEM leukemia = tested on: CCRF-CEM leukemia
SF-539 CNS = tested on: SF-539 CNS
U251 CNS = tested on: U251 CNS
SW-620 colon = tested on: SW-620 colon
HL-60(TB) leukemia = tested on: HL-60(TB) leukemia
HCC-2998 colon = tested on: HCC-2998 colon
SK-OV-3 ovarian = tested on: SK-OV-3 ovarian
A498 renal = tested on: A498 renal
OVCAR-8 ovarian = tested on: OVCAR-8 ovarian
HCT-116 colon = tested on: HCT-116 colon
HOP-92 NSCLC = tested on: HOP-92 NSCLC
UO-31 renal = tested on: UO-31 renal
MDA-MB-231 breast = tested on: MDA-MB-231 breast
HCT-15 colon = tested on: HCT-15 colon
SN12C renal = tested on: SN12C renal
MDA-MB-435 = tested on: MDA-MB-435
TK-10 renal = tested on: TK-10 renal
SF-268 CNS = tested on: SF-268 CNS
SR leukemia = tested on: SR leukemia
T-47D breast = tested on: T-47D breast
OVCAR-5 ovarian = tested on: OVCAR-5 ovarian
K-562 leukemia = tested on: K-562 leukemia
MOLT-4 leukemia = tested on: MOLT-4 leukemia
UACC-62 melanoma = tested on: UACC-62 melanoma
A549 NSCLC = tested on: A549 NSCLC
M14 melanoma = tested on: M14 melanoma
MALME-3M melanoma = tested on: MALME-3M melanoma
BT-549 breast = tested on: BT-549 breast
HT29 colon = tested on: HT29 colon
LOX IMVI melanoma = tested on: LOX IMVI melanoma
HOP-62 NSCLC = tested on: HOP-62 NSCLC
IGROV1 ovarian = tested on: IGROV1 ovarian
NCI-H226 lung = tested on: NCI-H226 lung
SF-295 CNS = tested on: SF-295 CNS
SK-MEL-5 melanoma = tested on: SK-MEL-5 melanoma
SNB-75 CNS = tested on: SNB-75 CNS
NCI-H460 lung = tested on: NCI-H460 lung
DU-145 prostate = tested on: DU-145 prostate
MCF7 breast = tested on: MCF7 breast
SNB-19 CNS = tested on: SNB-19 CNS
RPMI-8226 leukemia = tested on: RPMI-8226 leukemia
RXF 393 renal = tested on: RXF 393 renal
COLO 205 colon = tested on: COLO 205 colon
KM12 colon = tested on: KM12 colon
EKVX NSCLC = tested on: EKVX NSCLC
SK-MEL-28 melanoma = tested on: SK-MEL-28 melanoma
ACHN renal = tested on: ACHN renal
NCI-H522 lung = tested on: NCI-H522 lung
NCI-H23 lung = tested on: NCI-H23 lung
786-0 renal = tested on: 786-0 renal
SK-MEL-2 melanoma = tested on: SK-MEL-2 melanoma
NCI/ADR-RES ovarian = tested on: NCI/ADR-RES ovarian
PC-3 prostate = tested on: PC-3 prostate

## CC(Cl)CC(=O)Nc1ccc2c(c1)oc(=O)c1cc(NC(=O)CC(C)Cl)ccc12 (stereo unspecified)
OVCAR-3 ovarian
  GI50: 14.3 µM
  TGI: 31.1 µM
OVCAR-4 ovarian
  GI50: 11.3 µM
  TGI: 29.4 µM
HS 578T breast
  GI50: 2.36 µM
  TGI: 22.6 µM
CAKI-1 renal
  GI50: 19.7 µM
  TGI: > 100 µM
UACC-257 melanoma
  GI50: 23.2 µM
  TGI: 76.2 µM
CCRF-CEM leukemia
  GI50: 11.1 µM
  TGI: 29 µM
SF-539 CNS
  GI50: 14.4 µM
  TGI: 33.1 µM
U251 CNS
  GI50: 11.1 µM
  TGI: 23.7 µM
SW-620 colon
  GI50: 33.3 µM
  TGI: > 100 µM
HL-60(TB) leukemia
  GI50: 9.03 µM
  TGI: 29.3 µM
HCC-2998 colon
  GI50: 34.9 µM
  TGI: > 100 µM
SK-OV-3 ovarian
  GI50: 15.6 µM
  TGI: 76.7 µM
A498 renal
  GI50: 16.1 µM
  TGI: 38 µM
OVCAR-8 ovarian
  GI50: 10.4 µM
  TGI: 28.8 µM
HCT-116 colon
  GI50: 12.4 µM
  TGI: 40 µM
HOP-92 NSCLC
  GI50: 2.09 µM
  TGI: 10.7 µM
UO-31 renal
  GI50: 13.3 µM
  TGI: 69.4 µM
MDA-MB-231 breast
  GI50: 1.98 µM
  TGI: 23.7 µM
HCT-15 colon
  GI50: 13.2 µM
  TGI: 45.8 µM
SN12C renal
  GI50: 16.4 µM
  TGI: 32 µM
MDA-MB-435
  GI50: 18.3 µM
  TGI: > 100 µM
TK-10 renal
  GI50: 10.1 µM
  TGI: 23.8 µM
SF-268 CNS
  GI50: 10.1 µM
  TGI: 33.3 µM
SR leukemia
  GI50: 3.42 µM
  TGI: 20.7 µM
T-47D breast
  GI50: 16.2 µM
  TGI: > 100 µM
OVCAR-5 ovarian
  GI50: 16.8 µM
  TGI: 46.3 µM
K-562 leukemia
  GI50: 13.8 µM
  TGI: 33.6 µM
MOLT-4 leukemia
  GI50: 10.2 µM
  TGI: 34.4 µM
UACC-62 melanoma
  GI50: 15.1 µM
  TGI: 49.9 µM
A549 NSCLC
  GI50: 8 µM
  TGI: 22.2 µM
M14 melanoma
  GI50: 12.4 µM
  TGI: 37.5 µM
MALME-3M melanoma
  GI50: 4.28 µM
  TGI: 21.3 µM
BT-549 breast
  GI50: 22.1 µM
  TGI: 53.3 µM
HT29 colon
  GI50: 12.2 µM
  TGI: 34.5 µM
LOX IMVI melanoma
  GI50: 4.46 µM
  TGI: 21.9 µM
HOP-62 NSCLC
  GI50: 11.5 µM
  TGI: 28.2 µM
IGROV1 ovarian
  GI50: 1.73 µM
  TGI: 23.1 µM
NCI-H226 lung
  GI50: 23.6 µM
  TGI: > 100 µM
SF-295 CNS
  GI50: 10.1 µM
  TGI: 36.5 µM
SK-MEL-5 melanoma
  GI50: 11.5 µM
  TGI: 27.9 µM
SNB-75 CNS
  GI50: 15.1 µM
  TGI: 48.7 µM
NCI-H460 lung
  GI50: 13.7 µM
  TGI: 40.9 µM
DU-145 prostate
  GI50: 15.1 µM
  TGI: 34.1 µM
MCF7 breast
  GI50: 7.9 µM
  TGI: 23.1 µM
SNB-19 CNS
  GI50: 20.4 µM
  TGI: 69.7 µM
RPMI-8226 leukemia
  GI50: 1.46 µM
  TGI: 23.4 µM
RXF 393 renal
  GI50: 0.762 µM
  TGI: 22 µM
COLO 205 colon
  GI50: 14.4 µM
  TGI: > 100 µM
KM12 colon
  GI50: 7.44 µM
  TGI: 24.4 µM
EKVX NSCLC
  GI50: 27 µM
  TGI: 88 µM
SK-MEL-28 melanoma
  GI50: 16.4 µM
  TGI: 34.2 µM
ACHN renal
  GI50: 12.2 µM
  TGI: 31.8 µM
NCI-H522 lung
  GI50: 15.2 µM
  TGI: 36.8 µM
NCI-H23 lung
  GI50: 50 µM
  TGI: > 100 µM
786-0 renal
  GI50: 16.9 µM
  TGI: 44.1 µM
SK-MEL-2 melanoma
  GI50: 2.99 µM
  TGI: 83.6 µM
NCI/ADR-RES ovarian
  GI50: 12.4 µM
  TGI: 51 µM
PC-3 prostate
  GI50: 12.4 µM
  TGI: 27.7 µM
